Source: PubChem BioAssay (NCI)
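How tested: cells in 96-well plates exposed to compound for 48 hours at five concentrations. Abbreviation: GI50, concentration required for 50% inhibition of growth. At the TGI there is no net growth.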

Assays:
Assay in all cases: NCI tumour cell line growth inhibition, 48 h
IGROV1 ovarian = test system: IGROV1 ovarian
OVCAR-4 ovarian = test system: OVCAR-4 ovarian
SN12C renal = test system: SN12C renal
T-47D breast = test system: T-47D breast
SK-MEL-5 melanoma = test system: SK-MEL-5 melanoma
SR leukemia = test system: SR leukemia
HL-60(TB) leukemia = test system: HL-60(TB) leukemia
MDA-MB-231 breast = test system: MDA-MB-231 breast
SF-295 CNS = test system: SF-295 CNS
MALME-3M melanoma = test system: MALME-3M melanoma

Cc1cc(N=Cc2c(CO)cnc(C)c2O)c(N=Cc2c(CO)cnc(C)c2O)cc1C
TGI (IGROV1 ovarian): > 100 µM
TGI (OVCAR-4 ovarian): > 100 µM
TGI (SN12C renal): > 100 µM
TGI (T-47D breast): > 100 µM
TGI (SK-MEL-5 melanoma): > 100 µM
GI50 (SR leukemia): 41.2 µM
TGI (SR leukemia): > 100 µM
GI50 (HL-60(TB) leukemia): 0.0212 µM
TGI (HL-60(TB) leukemia): > 100 µM
TGI (MDA-MB-231 breast): > 100 µM
TGI (SF-295 CNS): > 100 µM
TGI (MALME-3M melanoma): > 100 µM

O=C(CC(=O)N1N=C(N(c2ccccc2)c2ccccc2)CC1c1ccccc1)Nc1cccc(Cl)c1 (centres undefined)
TGI (IGROV1 ovarian): > 100 µM
TGI (OVCAR-4 ovarian): > 100 µM
TGI (SN12C renal): > 100 µM
TGI (T-47D breast): > 100 µM
TGI (SK-MEL-5 melanoma): > 100 µM
TGI (SR leukemia): > 100 µM
TGI (HL-60(TB) leukemia): > 100 µM
TGI (MDA-MB-231 breast): > 100 µM
TGI (SF-295 CNS): > 100 µM

C[C@@H]1CC[C@@]2(C)[C@H](C)/C(=C\COC(=O)/C=C/c3ccc(O)c(O)c3)CC[C@@]12C
TGI (IGROV1 ovarian): 22.6 µM
TGI (OVCAR-4 ovarian): 19 µM
TGI (SN12C renal): 17.1 µM
TGI (T-47D breast): 34.7 µM
TGI (SK-MEL-5 melanoma): 17 µM
TGI (SR leukemia): 6.93 µM
TGI (HL-60(TB) leukemia): 13.4 µM
TGI (MDA-MB-231 breast): 20.5 µM
TGI (SF-295 CNS): 23.2 µM
TGI (MALME-3M melanoma): 27.8 µM

CC(=O)OCC1OC(O[C@H]2C=C[C@@H](C(=O)OCc3ccccc3)n3c(=O)n(-c4ccccc4)c(=O)n32)C(OC(C)=O)C(OC(C)=O)C1OC(C)=O (some centres undefined)
TGI (IGROV1 ovarian): 6.13 µM
TGI (OVCAR-4 ovarian): 6.89 µM
TGI (SN12C renal): 3.88 µM
TGI (T-47D breast): 8.33 µM
TGI (SK-MEL-5 melanoma): 5.66 µM
TGI (SR leukemia): 5.92 µM
TGI (HL-60(TB) leukemia): > 100 µM
TGI (MDA-MB-231 breast): 4.12 µM
TGI (SF-295 CNS): 25.3 µM

CN1CCc2c(sc3ncn(Nc4ccc(F)cc4)c(=N)c23)C1
TGI (IGROV1 ovarian): > 100 µM
TGI (OVCAR-4 ovarian): > 100 µM
TGI (SN12C renal): > 100 µM
TGI (T-47D breast): > 100 µM
TGI (SK-MEL-5 melanoma): > 100 µM
TGI (SR leukemia): > 100 µM
TGI (HL-60(TB) leukemia): > 100 µM
TGI (MDA-MB-231 breast): > 100 µM
TGI (SF-295 CNS): > 100 µM
TGI (MALME-3M melanoma): > 100 µM

O=C1c2ccccc2C(=O)N1NC1=NCCN1
TGI (IGROV1 ovarian): > 100 µM
TGI (OVCAR-4 ovarian): > 100 µM
TGI (SN12C renal): > 100 µM
TGI (T-47D breast): > 100 µM
TGI (SK-MEL-5 melanoma): > 100 µM
TGI (SR leukemia): > 100 µM
TGI (HL-60(TB) leukemia): > 100 µM
TGI (MDA-MB-231 breast): > 100 µM
TGI (SF-295 CNS): > 100 µM
TGI (MALME-3M melanoma): > 100 µM

c1cc(CSc2ncnc3nc[nH]c23)ccn1
TGI (IGROV1 ovarian): > 100 µM
TGI (OVCAR-4 ovarian): > 100 µM
TGI (SN12C renal): > 100 µM
TGI (T-47D breast): > 100 µM
TGI (SK-MEL-5 melanoma): > 100 µM
TGI (SR leukemia): > 100 µM
TGI (HL-60(TB) leukemia): > 100 µM
TGI (MDA-MB-231 breast): > 100 µM
TGI (SF-295 CNS): > 100 µM
TGI (MALME-3M melanoma): > 100 µM

COc1cc(C(c2ccc3c(c2)OCO3)C2SCCCS2)cc(OC)c1OC (centres undefined)
TGI (IGROV1 ovarian): 8.17 µM
TGI (OVCAR-4 ovarian): 75.8 µM
TGI (SN12C renal): 8.99 µM
TGI (T-47D breast): > 100 µM
TGI (SK-MEL-5 melanoma): 9.21 µM
TGI (SR leukemia): 2.07 µM
TGI (MDA-MB-231 breast): 6.21 µM
TGI (SF-295 CNS): 4.66 µM
TGI (MALME-3M melanoma): > 100 µM

O=C(Nc1ccc(Cl)cc1)c1cc(S(=O)(=O)N2CCNNC2=O)c(S)cc1Cl
TGI (IGROV1 ovarian): > 100 µM
TGI (OVCAR-4 ovarian): > 100 µM
TGI (SN12C renal): > 100 µM
TGI (T-47D breast): > 100 µM
TGI (SK-MEL-5 melanoma): > 100 µM
TGI (SR leukemia): > 100 µM
TGI (HL-60(TB) leukemia): > 100 µM
TGI (MDA-MB-231 breast): > 100 µM
TGI (SF-295 CNS): > 100 µM
TGI (MALME-3M melanoma): > 100 µM

CON[N+]([O-])=NC(C)C
TGI (IGROV1 ovarian): > 100 µM
TGI (OVCAR-4 ovarian): > 100 µM
TGI (SN12C renal): > 100 µM
TGI (T-47D breast): > 100 µM
TGI (SK-MEL-5 melanoma): > 100 µM
TGI (SR leukemia): > 100 µM
TGI (HL-60(TB) leukemia): > 100 µM
TGI (MDA-MB-231 breast): > 100 µM
TGI (SF-295 CNS): > 100 µM
TGI (MALME-3M melanoma): > 100 µM

N=c1oc2cc(O)ccc2cc1C(=O)Nc1cccc2ccccc12
TGI (IGROV1 ovarian): 14.4 µM
TGI (OVCAR-4 ovarian): > 51.1 µM
TGI (SN12C renal): 18.9 µM
TGI (T-47D breast): 19.6 µM
TGI (SK-MEL-5 melanoma): 15.8 µM
TGI (SR leukemia): 7.83 µM
TGI (HL-60(TB) leukemia): 10.7 µM
TGI (MDA-MB-231 breast): 10.1 µM
TGI (SF-295 CNS): 23.2 µM
TGI (MALME-3M melanoma): 15.5 µM
